From the NIST ThermoML archive (doi:10.1016/j.jct.2008.06.009)
± gives the expanded uncertainty stated by the source.

Experiment: xn = mol fraction of the nth substance listed
Conditions: Liquid, Bellows volumetry

N [ammonia] + O
mass density [kg/m3]
Conditions	x1 = 0.1048	x1 = 0.2046	x1 = 0.3807	x1 = 0.5565	x1 = 0.7008	x1 = 0.801	x1 = 0.9102	x1 = 1
450 K, 10000 kPa	843.9 ± 4.1	796.9 ± 3.8	708.1 ± 3.4	608.5 ± 3	–	–	–	–
450 K, 20000 kPa	850.4 ± 4.1	804.3 ± 3.9	718.8 ± 3.5	625.9 ± 3	534.7 ± 2.6	458.5 ± 2.2	–	–
450 K, 30000 kPa	856.6 ± 4.1	811 ± 3.9	728.1 ± 3.5	639.8 ± 3.1	557.7 ± 2.7	495.6 ± 2.4	422 ± 2.1	355.3 ± 1.7
450 K, 40000 kPa	862.7 ± 4.2	817.8 ± 3.9	736.8 ± 3.6	651.6 ± 3.2	575.2 ± 2.8	519.2 ± 2.5	457.5 ± 2.2	403.7 ± 1.9
450 K, 50000 kPa	868.5 ± 4.2	823.8 ± 4	744.9 ± 3.6	662.2 ± 3.2	589.4 ± 2.9	537.4 ± 2.6	481.3 ± 2.3	433.4 ± 2.1
450 K, 60000 kPa	873.9 ± 4.2	829.6 ± 4	751.5 ± 3.6	671.3 ± 3.2	601.8 ± 2.9	552.2 ± 2.7	499.7 ± 2.4	455.2 ± 2.2
450 K, 70000 kPa	879.1 ± 4.2	835.4 ± 4	758.3 ± 3.7	680.1 ± 3.3	612.5 ± 3	564.9 ± 2.7	514.8 ± 2.5	472.6 ± 2.3
450 K, 80000 kPa	884.2 ± 4.3	840.9 ± 4.1	765.1 ± 3.7	687.8 ± 3.3	622.2 ± 3	576 ± 2.8	527.7 ± 2.6	487.4 ± 2.3
450 K, 90000 kPa	889.2 ± 4.3	845.9 ± 4.1	771.1 ± 3.7	695.3 ± 3.4	631.2 ± 3.1	586.2 ± 2.8	539.1 ± 2.6	500.2 ± 2.4
450 K, 100000 kPa	893.9 ± 4.3	850.6 ± 4.1	777.1 ± 3.7	702.2 ± 3.4	639.2 ± 3.1	595.2 ± 2.9	549.2 ± 2.7	511.7 ± 2.5
450 K, 120000 kPa	902.7 ± 4.3	860.3 ± 4.1	788.1 ± 3.8	714.8 ± 3.4	654 ± 3.2	611.5 ± 3	566.9 ± 2.7	531.4 ± 2.6
450 K, 140000 kPa	911.3 ± 4.4	868.9 ± 4.2	798.6 ± 3.8	726.2 ± 3.5	666.9 ± 3.2	625.9 ± 3	582.2 ± 2.8	548.2 ± 2.6
450 K, 160000 kPa	919.5 ± 4.4	877.1 ± 4.2	807.9 ± 3.9	736.6 ± 3.6	678.7 ± 3.3	638.7 ± 3.1	595.6 ± 2.9	563.1 ± 2.7
450 K, 180000 kPa	927 ± 4.5	885.1 ± 4.3	817.2 ± 3.9	746.2 ± 3.6	689.4 ± 3.3	650.1 ± 3.1	607.8 ± 2.9	576.3 ± 2.8
450 K, 200000 kPa	934.3 ± 4.5	892.2 ± 4.3	825.3 ± 4	755.2 ± 3.6	699.3 ± 3.4	660.9 ± 3.2	618.7 ± 3	588.2 ± 2.8
500 K, 10000 kPa	782.5 ± 3.8	728.2 ± 3.5	–	–	–	–	–	–
500 K, 20000 kPa	792.5 ± 3.8	740.4 ± 3.6	641.7 ± 3.1	517 ± 2.5	–	–	–	–
500 K, 30000 kPa	801.3 ± 3.9	751.1 ± 3.6	658.5 ± 3.2	551.1 ± 2.7	447.5 ± 2.2	–	–	–
500 K, 40000 kPa	809.6 ± 3.9	760.6 ± 3.7	672.4 ± 3.3	574 ± 2.8	487.8 ± 2.4	422 ± 2.1	–	–
500 K, 50000 kPa	817.3 ± 3.9	769.5 ± 3.7	684.3 ± 3.3	591.7 ± 2.9	514.1 ± 2.5	456.2 ± 2.2	–	350.9 ± 1.7
500 K, 60000 kPa	824.3 ± 4	777.5 ± 3.8	695.3 ± 3.4	606.4 ± 2.9	534.1 ± 2.6	480.7 ± 2.3	426.9 ± 2.1	384.9 ± 1.8
500 K, 70000 kPa	831.3 ± 4	785.1 ± 3.8	704.8 ± 3.4	619 ± 3	550.6 ± 2.7	499.8 ± 2.4	450 ± 2.2	410.1 ± 2
500 K, 80000 kPa	837.7 ± 4	792.1 ± 3.8	713.9 ± 3.4	630.1 ± 3	564.5 ± 2.7	515.8 ± 2.5	468.5 ± 2.3	430.2 ± 2.1
500 K, 90000 kPa	843.7 ± 4.1	798.6 ± 3.9	721.8 ± 3.5	640.2 ± 3.1	576.7 ± 2.8	529.6 ± 2.6	484.1 ± 2.3	446.9 ± 2.1
500 K, 100000 kPa	849.7 ± 4.1	805 ± 3.9	729.7 ± 3.5	649.4 ± 3.1	587.6 ± 2.8	541.6 ± 2.6	497.6 ± 2.4	461.5 ± 2.2
500 K, 120000 kPa	860.7 ± 4.1	816.7 ± 3.9	743.7 ± 3.6	665.7 ± 3.2	606.7 ± 2.9	562.5 ± 2.7	520.1 ± 2.5	485.8 ± 2.3
500 K, 140000 kPa	870.8 ± 4.2	827.5 ± 4	756.6 ± 3.6	679.9 ± 3.3	623.1 ± 3	580.1 ± 2.8	538.9 ± 2.6	505.9 ± 2.4
500 K, 160000 kPa	880.6 ± 4.2	837.4 ± 4	768.3 ± 3.7	692.9 ± 3.3	637.4 ± 3.1	595.3 ± 2.9	555 ± 2.7	523.1 ± 2.5
500 K, 180000 kPa	889.4 ± 4.3	846.7 ± 4.1	779.3 ± 3.8	704.5 ± 3.4	650.4 ± 3.1	608.9 ± 2.9	569.2 ± 2.7	538.3 ± 2.6
500 K, 200000 kPa	897.9 ± 4.3	855.4 ± 4.1	789.2 ± 3.8	715 ± 3.4	662.1 ± 3.2	621.2 ± 3	581.9 ± 2.8	551.9 ± 2.6
